Test results taken from PubChem BioAssay AID330 (DTP/NCI, 2004).
Values joined by “and” are separate entries in the source; they are usually repeats but may differ in a detail not shown here. Identical values can stand only once. Toxic doses and inconclusive results are not listed.

Tested on: P388 leukemia ip, CD2F1 mice, survival T/C
Assay: NCI In Vivo Anticancer Drug Screen. Data for tumor model P388 Leukemia (intraperitoneal) in CD2F1 (CDF1) mice
Details: endpoint: median survival time, higher = longer survival
In short: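 Mice carrying the transplanted tumor received test compound or vehicle. Survival was recorded in each group, and the value is the treated-group measurement divided by that of the vehicle-treated control group.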

[1] = dose: 60.0 mg/kg/injection, schedule: Q01DX005 (ip), vehicle: Klucel (hydroxypropylcellulose) (HPC)
[2] = dose: 120.0 mg/kg/injection, schedule: Q01DX005 (ip), vehicle: Klucel (hydroxypropylcellulose) (HPC)
[3] = dose: 240.0 mg/kg/injection, schedule: Q01DX005 (ip), vehicle: Klucel (hydroxypropylcellulose) (HPC)
[4] = dose: 50.0 mg/kg/injection, schedule: Q01DX005 (ip), vehicle: Klucel (hydroxypropylcellulose) (HPC)
[5] = dose: 100.0 mg/kg/injection, schedule: Q01DX005 (ip), vehicle: Klucel (hydroxypropylcellulose) (HPC)
[6] = dose: 200.0 mg/kg/injection, schedule: Q01DX005 (ip), vehicle: Klucel (hydroxypropylcellulose) (HPC)
[7] = dose: 50.0 mg/kg/injection, schedule: Q01DX005 (ip), vehicle: saline with Tween-80
[8] = dose: 100.0 mg/kg/injection, schedule: Q01DX005 (ip), vehicle: saline with Tween-80
[9] = dose: 200.0 mg/kg/injection, schedule: Q01DX005 (ip), vehicle: saline with Tween-80
[10] = dose: 50.0 mg/kg/injection, schedule: Q01DX009 (ip), vehicle: Klucel (hydroxypropylcellulose) (HPC)
[11] = dose: 100.0 mg/kg/injection, schedule: Q01DX009 (ip), vehicle: Klucel (hydroxypropylcellulose) (HPC)
[12] = dose: 200.0 mg/kg/injection, schedule: Q01DX009 (ip), vehicle: Klucel (hydroxypropylcellulose) (HPC)
[13] = dose: 50.0 mg/kg/injection, schedule: Q01DX009 (ip), vehicle: saline with Tween-80
[14] = dose: 12.5 mg/kg/injection, schedule: Q01DX005 (ip), vehicle: saline with Tween-80
[15] = dose: 25.0 mg/kg/injection, schedule: Q01DX005 (ip), vehicle: saline with Tween-80
[16] = dose: 100.0 mg/kg/injection, schedule: Q01DX009 (ip), vehicle: saline with Tween-80
[17] = dose: 200.0 mg/kg/injection, schedule: Q01DX009 (ip), vehicle: saline with Tween-80
[18] = dose: 100.0 mg/kg/injection, schedule: Q04DX003 (ip), vehicle: Klucel (hydroxypropylcellulose) (HPC)
[19] = dose: 200.0 mg/kg/injection, schedule: Q04DX003 (ip), vehicle: Klucel (hydroxypropylcellulose) (HPC)

With `Cc1cc2c(cc1C)NC1C(=O)C(c3ccc(Cl)c(Cl)c3)OC1=N2` (centres undefined) as the molecule, how does the T/C (dose: 30.0 mg/kg/injection, schedule: Q01DX005 (ip), vehicle: Klucel (hydroxypropylcellulose) (HPC)) read?
The T/C was 91 % of control.

And the T/C [1]?
Its T/C is 91 % of control.

What about the T/C [2] of the same molecule?
Its T/C is 93 % of control.

What about the T/C [3] of the same molecule?
The T/C was 86 % of control.

Which results are given for `O=C(Nc1ccccc1)/C(N=Nc1ccccc1Cl)=N\Nc1cc(S(=O)(=O)O)ccc1Cl`?
T/C [4]: 103 % of control; T/C [5]: 102 % of control; T/C [6]: 107 % of control

For `CC(=O)Nc1ccc(C(=O)CCl)c(Cl)c1`, which T/C (dose: 12.5 mg/kg/injection, schedule: Q01DX009 (ip), vehicle: Klucel (hydroxypropylcellulose) (HPC)) is on record?
Its T/C is 104 % of control.

What about the T/C (dose: 25.0 mg/kg/injection, schedule: Q01DX009 (ip), vehicle: Klucel (hydroxypropylcellulose) (HPC)) of the same molecule?
The T/C was 107 % of control.

With `C=CC12CCC(CC1)n1c(=O)n(C)c(=O)n12` as the molecule, how does the T/C [7] read?
Its T/C is 99 % of control.

And the T/C [8]?
The T/C was 103 % of control.

What about the T/C [9] of the same molecule?
Its T/C is 100 % of control.

What does the source list for `COC(=O)NC1=Nc2ccccc2N(C(=O)C(C)C)S1`?
T/C [4]: 100 % of control; T/C [5]: 101 % of control; T/C [6]: 97 % of control

Which results are given for `COc1ccc(/C=C/C(C)=N/NC(N)=O)cc1`?
T/C [7]: 101 % of control; T/C [8]: 94 % of control; T/C [9]: 96 % of control

Which T/C [1] does the source give for `O=C(O)CCSC(=S)NN1CCN(NC(=S)SCCC(=O)O)CC1` here?
Its T/C is 108 % of control.

What about the T/C [2] of the same molecule?
Its T/C is 100 % of control.

What about the T/C [3] of the same molecule?
The T/C was 96 % of control.

What does the source list for `COc1ccc(C2CCCCCC2)c(OC)c1OC`?
T/C [10]: 98 % of control and 108 % of control; T/C [11]: 113 % of control; T/C [12]: 103 % of control and 105 % of control

Which results are given for `CC(C)(C)C(=O)Nc1ccc(S(=O)(=O)Nc2ccc(N)cc2O)cc1`?
T/C [10]: 112 % of control; T/C [11]: 97 % of control; T/C [12]: 115 % of control

How did the T/C [4] turn out when `O=C1CCOCCCOCCC(=O)OCCCOC(=O)CCOCCCOCCC(=O)OCCCO1` was run?
Its T/C is 100 % of control.

And the T/C [5]?
Its T/C is 105 % of control.

What does the source list for `CC(C)OC(=O)Nc1ccccc1Cl`?
T/C (dose: 12.5 mg/kg/injection, schedule: Q01DX009 (ip), vehicle: saline with Tween-80): 104 % of control; T/C (dose: 25.0 mg/kg/injection, schedule: Q01DX009 (ip), vehicle: saline with Tween-80): 100 % of control; T/C [13]: 109 % of control

How did the T/C (dose: 6.25 mg/kg/injection, schedule: Q01DX005 (ip), vehicle: saline with Tween-80) turn out when `CCN(C(=S)NNC(=S)N/N=C(\C)c1ccccn1)c1ccccc1` was run?
Its T/C is 94 % of control.

And the T/C [14]?
The T/C was 107 % of control.

And the T/C [15]?
Its T/C is 109 % of control.

And the T/C [7]?
Its T/C is 112 % of control.

And the T/C [8]?
Its T/C is 120 % of control.

For `O=C(O)CCCCOC(C[N+](=O)[O-])C(Cl)(Cl)Cl` (centres undefined), which T/C [13] is on record?
The T/C was 100 % of control.

And the T/C [16]?
The T/C was 95 % of control.

And the T/C [17]?
Its T/C is 99 % of control.

With `Nc1ccccc1N=C(CC(=O)c1ccco1)C(F)(F)F` as the molecule, how does the T/C (dose: 6.25 mg/kg/injection, schedule: Q01DX009 (ip), vehicle: saline) read?
The T/C was 99 % of control.

What about the T/C (dose: 25.0 mg/kg/injection, schedule: Q01DX009 (ip), vehicle: saline) of the same molecule?
The T/C was 91 % of control.

What about the T/C (dose: 100.0 mg/kg/injection, schedule: Q01DX009 (ip), vehicle: saline) of the same molecule?
The T/C was 88 % of control.

What about the T/C (dose: 200.0 mg/kg/injection, schedule: Q01DX009 (ip), vehicle: saline) of the same molecule?
Its T/C is 105 % of control.

What does the source list for `CO/N=C(\N)NC(=O)Cc1c(Cl)cccc1Cl`?
T/C (dose: 6.25 mg/kg/injection, schedule: Q01DX005 (ip), vehicle: Klucel (hydroxypropylcellulose) (HPC)): 94 % of control; T/C (dose: 12.5 mg/kg/injection, schedule: Q01DX005 (ip), vehicle: Klucel (hydroxypropylcellulose) (HPC)): 98 % of control; T/C (dose: 25.0 mg/kg/injection, schedule: Q01DX005 (ip), vehicle: Klucel (hydroxypropylcellulose) (HPC)): 100 % of control and 101 % of control; T/C [4]: 103 % of control and 90 % of control; T/C [5]: 100 % of control

How did the T/C (dose: 60.0 mg/kg/injection, schedule: Q01DX005 (ip), vehicle: saline with Tween-80) turn out when `C=CCn1c(SC)nc2c(c1=O)CCCC2` was run?
Its T/C is 108 % of control.

What about the T/C (dose: 120.0 mg/kg/injection, schedule: Q01DX005 (ip), vehicle: saline with Tween-80) of the same molecule?
The T/C was 97 % of control.

With `CC(CCOCCCBr)OC(=O)CCOCCC(=O)OC(C)CCOCCCBr` (centres undefined) as the molecule, how does the T/C [4] read?
The T/C was 100 % of control.

And the T/C [5]?
Its T/C is 98 % of control.

What about the T/C [6] of the same molecule?
Its T/C is 100 % of control.

Which T/C (dose: 0.13 mg/kg/injection, schedule: Q01DX005 (ip), vehicle: saline) does the source give for `Cn1c(-c2ccc(/C=N/N=C(\N)N/N=C/c3ccc(-c4c[n+]5ccsc5n4C)cc3)cc2)c[n+]2ccsc12` here?
The T/C was 108 % of control.

And the T/C (dose: 0.25 mg/kg/injection, schedule: Q01DX005 (ip), vehicle: saline)?
The T/C was 121 % of control.

Which T/C [18] does the source give for `O=C(c1ccccc1)C(c1ccccc1)n1ncc2c1CCOC2` (centres undefined) here?
Its T/C is 105 % of control.

What about the T/C [19] of the same molecule?
The T/C was 96 % of control.

And the T/C (dose: 400.0 mg/kg/injection, schedule: Q04DX003 (ip), vehicle: Klucel (hydroxypropylcellulose) (HPC))?
The T/C was 108 % of control.

Which results are given for `CCCCN1CCC(CNc2ccnc3cc(Cl)ccc23)C1` (centres undefined)?
T/C [14]: 93 % of control; T/C [15]: 90 % of control; T/C [7]: 109 % of control and 93 % of control

For `CCOc1ccc(-c2nc(Cl)nc(Cl)n2)c2ccccc12`, which T/C [1] is on record?
Its T/C is 104 % of control.

And the T/C [2]?
Its T/C is 111 % of control.

For `CCc1[nH]c2ccc(C)cc2c1C(=O)c1cccnc1`, which T/C (dose: 50.0 mg/kg/injection, schedule: Q04DX003 (ip), vehicle: Klucel (hydroxypropylcellulose) (HPC)) is on record?
Its T/C is 94 % of control.

And the T/C [18]?
Its T/C is 103 % of control.

What about the T/C [19] of the same molecule?
Its T/C is 98 % of control.

With `COc1cc(-c2nc(=S)[nH][nH]2)cc(OC)c1OC` as the molecule, how does the T/C (dose: 100.0 mg/kg/injection, schedule: Q01DX001 (ip), vehicle: saline with Tween-80) read?
Its T/C is 89 % of control.

What about the T/C (dose: 200.0 mg/kg/injection, schedule: Q01DX001 (ip), vehicle: saline with Tween-80) of the same molecule?
Its T/C is 89 % of control.

And the T/C (dose: 400.0 mg/kg/injection, schedule: Q01DX001 (ip), vehicle: saline with Tween-80)?
The T/C was 96 % of control.

Which T/C (dose: 12.5 mg/kg/injection, schedule: Q04DX003 (ip), vehicle: Klucel (hydroxypropylcellulose) (HPC)) does the source give for `C/C(=N\NC(=S)N1CCC(C)CC1)c1ncccn1` here?
The T/C was 117 % of control.

What about the T/C (dose: 25.0 mg/kg/injection, schedule: Q04DX003 (ip), vehicle: Klucel (hydroxypropylcellulose) (HPC)) of the same molecule?
The T/C was 91 % of control.

With `CCn1c(C)nc2ncn(-c3ccccc3)c2c1=O` as the molecule, how does the T/C [4] read?
Its T/C is 100 % of control.

And the T/C [5]?
The T/C was 100 % of control.

And the T/C [6]?
The T/C was 98 % of control.

What does the source list for `NC(CO)C(=O)NCCS(=O)(=O)O` (centres undefined)?
T/C (dose: 60.0 mg/kg/injection, schedule: Q01DX005 (ip), vehicle: saline): 104 % of control; T/C (dose: 120.0 mg/kg/injection, schedule: Q01DX005 (ip), vehicle: saline): 99 % of control; T/C (dose: 240.0 mg/kg/injection, schedule: Q01DX005 (ip), vehicle: saline): 99 % of control

`O=C(O)COc1ccc2ccccc2c1` was tested. Which T/C [16] did it give?
The T/C was 90 % of control.

What about the T/C (dose: 100.0 mg/kg/injection, schedule: Q04DX003 (ip), vehicle: saline with Tween-80) of the same molecule?
The T/C was 100 % of control.

And the T/C [17]?
The T/C was 100 % of control.

And the T/C (dose: 200.0 mg/kg/injection, schedule: Q04DX003 (ip), vehicle: saline with Tween-80)?
Its T/C is 110 % of control.

Which T/C [7] does the source give for `CC1(C)S[C@@H]2C(Cl)=C(Cl)C(=O)N2[C@H]1C(=O)O` here?
Its T/C is 91 % of control.

And the T/C [8]?
The T/C was 91 % of control.

With `N#C/C(N)=C(\C#N)N=Cc1ccc(N(CCCl)CCCl)cc1` as the molecule, how does the T/C [7] read?
Its T/C is 100 % of control.

What about the T/C [8] of the same molecule?
Its T/C is 104 % of control.

What about the T/C [9] of the same molecule?
The T/C was 92 % of control.

Which T/C [18] does the source give for `CSc1nccc(=O)n1-c1ccccc1` here?
The T/C was 91 % of control.

And the T/C [19]?
Its T/C is 92 % of control.
